From paper PMC11541931, “The structure and function of P5A-ATPases” (Nature Communications, 2024)

Target: T1, CtSpf1 (Thermochaetoides thermophila, UniProt G0S4Z4)
T1 construct: gene CTHT_0032200; full length, last two C-terminal arginines removed; C-terminal TEV site-GGGGS-GFP-His10, tag kept; made in S. cerevisiae PAP1500; in nanodiscs
Test: cryo-EM structure, […] A
Settings: 1 mM ADP with 2 mM AlF4-, Mg2+; MSP1E3D1 nanodisc, pH 7.5; nucleotide-binding site, E1P-ADP state

T1 sequence (G0S4Z4 entry or part of it): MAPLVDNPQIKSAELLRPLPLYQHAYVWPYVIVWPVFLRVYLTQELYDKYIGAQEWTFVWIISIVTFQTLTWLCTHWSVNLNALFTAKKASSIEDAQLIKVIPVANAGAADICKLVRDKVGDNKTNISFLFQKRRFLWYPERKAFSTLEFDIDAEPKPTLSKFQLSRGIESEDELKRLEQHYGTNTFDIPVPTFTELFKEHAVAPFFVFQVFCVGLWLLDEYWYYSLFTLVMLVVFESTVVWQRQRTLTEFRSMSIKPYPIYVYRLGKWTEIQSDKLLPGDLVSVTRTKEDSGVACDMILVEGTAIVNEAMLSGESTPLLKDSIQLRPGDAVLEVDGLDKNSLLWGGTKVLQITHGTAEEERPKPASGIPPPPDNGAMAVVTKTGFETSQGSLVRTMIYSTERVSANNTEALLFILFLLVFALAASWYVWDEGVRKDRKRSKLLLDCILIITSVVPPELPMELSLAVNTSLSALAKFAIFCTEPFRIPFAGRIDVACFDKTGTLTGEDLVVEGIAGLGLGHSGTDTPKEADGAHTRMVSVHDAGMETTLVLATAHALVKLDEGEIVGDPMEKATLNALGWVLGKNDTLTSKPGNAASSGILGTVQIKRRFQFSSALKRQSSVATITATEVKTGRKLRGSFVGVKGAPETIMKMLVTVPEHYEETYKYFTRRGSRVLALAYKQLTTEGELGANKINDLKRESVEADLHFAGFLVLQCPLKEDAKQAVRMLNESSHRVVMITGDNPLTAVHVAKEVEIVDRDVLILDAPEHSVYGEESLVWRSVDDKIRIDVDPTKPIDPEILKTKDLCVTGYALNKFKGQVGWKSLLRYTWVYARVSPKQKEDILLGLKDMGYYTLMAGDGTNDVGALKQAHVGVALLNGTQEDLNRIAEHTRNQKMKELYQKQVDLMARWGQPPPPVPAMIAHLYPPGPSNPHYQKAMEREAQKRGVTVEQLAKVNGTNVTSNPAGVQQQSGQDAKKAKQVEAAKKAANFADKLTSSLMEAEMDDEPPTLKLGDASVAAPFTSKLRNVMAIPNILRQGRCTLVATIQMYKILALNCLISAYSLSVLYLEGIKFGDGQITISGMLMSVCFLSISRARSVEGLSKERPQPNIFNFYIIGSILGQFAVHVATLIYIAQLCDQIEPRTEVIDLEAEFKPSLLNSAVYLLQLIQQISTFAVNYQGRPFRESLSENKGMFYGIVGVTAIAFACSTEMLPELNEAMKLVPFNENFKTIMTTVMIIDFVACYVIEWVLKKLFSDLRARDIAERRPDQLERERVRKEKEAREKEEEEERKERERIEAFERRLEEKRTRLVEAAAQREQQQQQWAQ

## Nc1ncnc2c1ncn2[C@@H]1O[C@H](COP(=O)(O)OP(=O)(O)O)[C@@H](O)[C@H]1O [ADP]
  cryo-EM structure, 3.4 A: We retrieved two separate maps with ADP-AlF4^− bound
